Our source for the GI50 and ED50 values is ChEMBL document CHEMBL1156368, “(+)-epi-Alpha-bisabolol [correction of bisbolol] is the wound-healing principle of Peperomia galioides: investigation of the in vivo wound-healing activity of related terpenoids” (J Nat Prod, 2001).

Converted amounts (≈) assume the structure as drawn. The source made the active and inactive calls. No cut-off for these calls is given here.

Series [1] can be described thus: Growth inhibition of mouse 3T3 cells. In kind it is cell-based. The following applies: NIH3T3 cells.
The species named for another series is Mus musculus. Briefly: Cicatrizant activity in mouse assessed as wound healing by tensile strength method. In kind it is functional.

By GI50 is commonly meant the concentration giving 50% growth inhibition. A higher GI50 goes with less potent growth inhibition. On to `CC(C)=CCC[C@](C)(O)[C@H]1CC=C(C)CC1`, for which the 50% growth inhibitory concentration (GI50) in series [1] was 8 µg/mL (≈ 36 µM).
As a reminder, the ED50 is the dose at which the effect has come halfway, by size or by number of responders. On to `COc1ccc2c(=O)oc3c(OC)cc(CCN(C)C)c4c(=O)oc1c2c34` [TASPINE], for which the ED50 in the series filed under Mus musculus was 15 mg/kg.
On to `CC1=CC[C@@H](C(C)(C)O)CC1` [ALPHA-TERPINEOL], for which, in the series listed under Mus musculus, the median effective dose (ED50) came out at 240 mg/kg. Moreover, in series [1], the GI50 was 17 µg/mL (≈ 110 µM).
On the same counts, the results for `CC(C)=CCC[C@](C)(O)[C@@H]1CC=C(C)CC1` [LEVOMENOL] are 228 mg/kg and 84 µg/mL (≈ 378 µM).
On to `C=CC(C)(O)CC/C=C(\C)CCC=C(C)C` (stereo not drawn), for which the ED50 result in the series filed under Mus musculus is “inactive”.
`CC(C)=CCC/C(C)=C/CC/C(C)=C/CO`: the ED50 entry in the series listed under Mus musculus was “inactive”.
